{"source": "patent US20060014709A1", "about": "“Drug or cosmetic” (priority 2002, published 2006)", "key": {"[1]": {"tested_on": "male SD rats, obstruction-released kidney (glomerular lesions and tubulointerstitial lesions)", "test": "Obstruction release model after complete obstruction of unilateral ureter for 14 days (Example 2-2)", "type": "in vivo", "parameters": "key to Tubulointerstitial lesions: level of lesions: summed lesion score; + = 1, ++ = 2, +++ = 3; ≤6.5 improved", "conditions": "rat, 30 mg/kg subcutaneously", "from_the_text": "(§1) That is, the rat was laparotomized under anesthesia with ether and left ureter was ligated with 7-0 Nylon at the height of the margin of lower pole of kidney to close the abdomen. On the 14th day after obstruction, the obstruction was released and urinary passage was reconstructed using a cuff. Thus, after 14 days, the part of ligated obstructed ureter was resected, a polyethylene tube of 25 gages (manufactured by Nippon Sherwood) was used as a cuff and inserted into and retained at the lumen from the cut end of the lower normal ureter, then the cuff was also retained in the expanded upper ureter and each of them was ligated and fixed by 7-0 Nylon to reconstruct the urinary passage. At the same time, the right kidney at the opposite side was excised. After the release of the obstruction, body weight was measured, blood was drawn on the 2nd day, 5th day and 7th day from the release to measure serum creatinine, then the rat was killed under anesthesia and the left obstruction-released kidney was excised.\n(§2) An in vivo biological test was carried out for the γ-lactone derivative according to the present invention using this model. Bulk powder of a test compound was dissolved in sterile physiological saline together with gum arabic, and concentrations of the test compound and gum arabic were adjusted to 30 mg/mL and 5% respectively. The preparation was administered orally or subcutaneously injected at the dose of 30 mg/kg or 3 mg/kg every day. The administration was conducted for the total 21 days of the obstructed period for 14 days and after release of the obstruction for 7 days.\nFor cell surface markers of leukocyte cells which infiltrate the obstruction-released kidney, ED1, CD11b (ED8), CD5 and CD2 were used. […] For CD5^+, a number of not less than 20 per glomerulus was considered as positive. For glomerular lesions, which was characterized by Bowman's capsule wall, glomerular hyalinosis, dilation of urinary space pole and hypertrophy of parietal cells, 50 glomeruli were evaluated to obtain a proportion of pathologic glomeruli. For tubulointerstitial lesions, levels of the lesions were represented by qualifying hyperplasia of tubular basement membrane, tubular enlargement and atrophy and interstitial fibrosis. Scoring was as follows: + gets 1-point as a light lesion; ++ gets 2-point as a moderate lesion; and +++ gets 3-point as a severe lesion. Levels of cell infiltration were evaluated qualitatively according to the above three-point scale. For glomerular lesions, when a proportion of lesioned glomeruli was decreased to not more than 20%, and for tubulointerstitial lesions, when a score of the lesions was not more than 6.5, it was considered as improved.\nNumbers of cells positive for CD11b (ED8), CD2 and CD5 were compared by means of immunopathology, and CD11b^+CD2^+ macrophages were considered as regeneration-promoting macrophages in glomeruli and CD11b^−CD2^+CD5+ macrophages were considered as regeneration-promoting macrophages to tubulointerstitial lesions, and herewith, it was estimated whether each cell group is quantitatively dominant or not."}, "[2]": {"tested_on": "male SD rats, obstruction-released kidney (glomerular lesions and tubulointerstitial lesions)", "test": "Obstruction release model after complete obstruction of unilateral ureter for 14 days (Example 2-1)", "type": "in vivo", "parameters": "key to Tubulointerstitial lesions: level of lesions (quality): summed lesion score: + = 1, ++ = 2, +++ = 3 points", "conditions": "rat", "from_the_text": "as §1\nWith regard to the excised kidney, there were carried out measurements of weight of the kidney, creatinine concentration mg/dl in plasma as an indicator of kidney function and pathological test for the kidney, and also leukocyte cells which infiltrate the obstruction-released kidney were immunopathologically studied with cell surface markers for ED1 macrophages, CD11b (ED8) positive macrophages and CD5 positive lymphocytes. A number of positive cells was expressed as a number of cells per glomerulus from measured numbers of positive cells in five glomeruli, and for a number in tubulointerstitial tissue, it was expressed by the total number of cells existing in five fields of 200×magnification. For macrophages, a number of CD11b positive cells existing in glomerulus was considered as a number of CD11b^+CD2^+ macrophages and a case of existing not less than one positive cell per glomerulus was considered as positive (+). In the tubulointerstitial tissue, a number of […] 60 CD11b positive cells was considered as positive (+), or a case of CD11b^−CD2^+ macrophages dominantly increasing. Scoring of evaluation of tubulointerstitial lesions was as follows: + gets 1-point as a light lesion; ++ gets 2-point as a moderate lesion; and +++ gets3-point as a severe lesion. For glomerular lesions, when a proportion of lesioned glomeruli was decreased to not more than 40%, and for tubulointerstitial lesions, when a score of the lesions was not more than 4, it was considered as improved.\nFor glomerular lesions, by counting glomeruli causing thickening of Bowman's capsule wall and glomerular hyalinosis, a proportion of glomeruli having lesions was calculated. For tubulointerstitial lesions, by qualifying hyperplasia of tubular basement membrane and interstitial fibrosis, levels of the lesions were represented.\nas §2\nFor test groups, a group administered single compound group, a group administered both compound group and a control group administered solution of gum arabic were set up and compared for renal functions and morphological evaluations, as well as numbers of ED1, CD5, CD11b positive cells by means of immunopathology."}, "[3]": {"conditions": "30 mg/kg subcutaneously every day for 21 days, one value per animal, 30 mg/kg"}}, "note": "Several values for one entry are separate records, joined by “and”; a condition that tells them apart may be missing. Identical values can stand only once. Entries after “also recorded” stand apart in the source; their conditions may differ.", "data": [{"compound": "O=C1OC(Cl)(C(=O)OCc2ccccc2)c2ccccc21", "note": "(stereo not shown) [compound (I-3), 1-chloro-3-oxo-1,3-dihydroisobenzofuran-1-carboxylic acid benzyl ester]", "values": [{"measurement": "cases in which regeneration-promoting CD11b^+CD2^+ macrophages were predominant in glomeruli", "setting": "[1]", "value": "three of four cases"}, {"measurement": "cases in which regeneration-promoting CD11b^−CD2^+CD5+ macrophages were predominant in tubulointerstitial lesions", "setting": "[1]", "value": "three of four cases"}, {"measurement": "difference in serum creatinine", "setting": "[1]", "value": "no difference"}, {"measurement": "pathological improvement of glomerular lesions (cases)", "setting": "[1]", "value": "all four cases"}, {"measurement": "pathological improvement of tubulointerstitial lesions (cases)", "setting": "[1]", "value": "two of four cases"}, {"measurement": "Coincidence of two regeneration macrophages being positive", "setting": "[1]; one value per animal, 30 mg/kg", "value": "Coincident"}, {"measurement": "Degree of cell infiltration", "setting": "[1]; one value per animal, 30 mg/kg", "value": "+ and +++"}, {"measurement": "Number of regeneration CD11b^+CD2^+ macrophages to glomerular lesions: number of positive cells per glomerulus CD11b^+CD2^+", "setting": "[1]; one value per animal, 30 mg/kg", "value": "4.3 cells per glomerulus and 1.8 cells per glomerulus (2×) and 0.5 cells per glomerulus"}, {"measurement": "Number of regeneration CD11b^−CD2^+CD5^+ macrophages to tubulointerstitial lesions: number of positive cells in five fields of 200× magnification, CD5^+", "setting": "[1]; one value per animal, 30 mg/kg", "value": "77 cells in five fields of 200× m and 25 cells in five fields of 200× m and 60 cells in five fields of 200× m and 20 cells in five fields of 200× m"}, {"measurement": "Number of regeneration CD11b^−CD2^+CD5^+ macrophages to tubulointerstitial lesions: number of positive cells in five fields of 200× magnification, CD11b^+", "setting": "[1]; one value per animal, 30 mg/kg", "value": "62 cells in five fields of 200× m and 53 cells in five fields of 200× m and 14 cells in five fields of 200× m and 22 cells in five fields of 200× m"}, {"measurement": "Regeneration macrophages to glomerular lesions, Determination Increase +", "setting": "[1]; one value per animal, 30 mg/kg", "value": "+ (a case of existing not less than one positive cell per glomerulus was considered as positive (+))"}, {"measurement": "Serum creatinine", "setting": "[1]; one value per animal, 30 mg/kg", "value": "2.8 mg/dL and 1.4 mg/dL and 2.1 mg/dL and 1.7 mg/dL"}, {"measurement": "Tubulointerstitial lesions: level of lesions", "setting": "[1]; one value per animal, 30 mg/kg", "value": "6.5 and 3.5 and 7.0 and 8.5"}, {"measurement": "Glomerular lesions: proportion of lesioned glomeruli (%)", "setting": "[1]; one value per animal, 50 glomeruli evaluated", "value": "<1", "unit": "%"}, {"measurement": "Regeneration CD11b^−CD2^+CD5^+ macrophages to tubulointerstitial lesions, Determination Increase +", "setting": "[1]; one value per animal, CD11b^+ not more than 60 and CD5^+ not less than 20, 30 mg/kg", "value": "+ (For CD5^+, a number of not less than 20 per glomerulus was considered as positive)"}]}, {"compound": "O=C1CCC(F)(C(=O)OCc2ccccc2)O1", "note": "(stereo not shown) [compound (II-2), 2-fluoro-5-oxotetrahydrofuran-2-carboxylic acid benzyl ester]", "values": [{"measurement": "cases with increased regeneration-promoting CD11b^+CD2^+ macrophages to glomerular lesions", "setting": "[2]; 30 mg/kg subcutaneously", "value": "Regeneration-promoting macrophages were increased on both lesions"}, {"measurement": "cases with increased regeneration-promoting CD11b^−CD2^+ macrophages to tubulointerstitial lesions", "setting": "[2]; 30 mg/kg subcutaneously", "value": "Regeneration-promoting macrophages were increased on both lesions"}, {"measurement": "Regeneration CD11b^−CD2^+ macrophages to tubulointerstitial lesions, Determination: increase +", "setting": "[2]; 30 mg/kg subcutaneously every day for 21 days, one value per animal", "value": "+ (a number of not more than 60 CD11b positive cells was considered as positive (+))"}, {"measurement": "Coincidence of two regeneration macrophages being positive", "setting": "[2]; [3]", "value": "Not coincident; also recorded: Coincident"}, {"measurement": "Glomerular lesions: proportion of lesioned glomeruli (%)", "setting": "[2]; [3]", "value": "32% and 28% and 19% and 18%"}, {"measurement": "Number of regeneration CD11b^+CD2^+ macrophages to glomerular lesions: number of positive cells per glomerulus", "setting": "[2]; [3]", "value": "0.7 cells per glomerulus and 1.7 cells per glomerulus and 2.3 cells per glomerulus and 1.4 cells per glomerulus"}, {"measurement": "Number of regeneration CD11b^−CD2^+ macrophages to tubulointerstitial lesions: number of positive cells (CD11b) in five fields of 200× magnification", "setting": "[2]; [3]", "value": "33 cells in five fields of 200× m and 35 cells in five fields of 200× m and 27 cells in five fields of 200× m and 16 cells in five fields of 200× m"}, {"measurement": "Regeneration CD11b^+CD2^+ macrophages to glomerular lesions, Determination: increase = +", "setting": "[2]; [3]", "value": "+ (a case of existing not less than one positive cell per glomerulus was considered as positive (+))"}, {"measurement": "Serum creatinine", "setting": "[2]; [3]", "value": "2.0 mg/dl (2×) and 2.5 mg/dl and 2.3 mg/dl"}, {"measurement": "Tubulointerstitial lesions: level of lesions (quality)", "setting": "[2]; [3]", "value": "4.5 (2×) and 6.5 (2×)"}]}]}
